The subject of test [1] is A549. Description: Anticancer activity against human A549 cells assessed as reduction in cell viability incubated for 72 hrs by MTT assay. In kind it is functional, cell-based. The conditions noted are these: A549, 72 h. Background: Tetrazolium assays rely on reduction of a dye to a coloured formazan, in cell work by metabolically active cells.
In the next test the test system is PaTu 8988t. Briefly: Anticancer activity against human PaTu 8988t cells assessed as reduction in cell viability incubated for 72 hrs by MTT assay. The test is classed as functional, cell-based.
The subject of the next test is HeLa. Briefly: Anticancer activity against human HeLa cells assessed as reduction in cell viability incubated for 72 hrs by MTT assay. The test is classed as functional, cell-based.
The next test concerns MDA-MB-231. Description: Anticancer activity against human MDA-MB-231 cells assessed as reduction in cell viability incubated for 72 hrs by MTT assay. In kind it is functional, cell-based. Particulars: MDA-MB-231, 72 h.
Test [2] relates to MCF7. Briefly: Anticancer activity against human MCF7 cells assessed as reduction in cell viability incubated for 72 hrs by MTT assay. Particulars: MCF7, 72 h. The test is classed as functional, cell-based.
For another test, the system named is NCI-H292. Briefly: Anticancer activity against human NCI-H292 cells assessed as reduction in cell proliferation incubated for 48 hrs by Calcein AM and Pluronic F-127 staining based fluorescence plate reader analysis. The test is classed as functional. Particulars: NCI-H292, 48 h.
A short description of test [3]: Inhibition of mitochondrial F0F1-ATPase (unknown origin). Set-up: species or system Homo sapiens.
The test system of test [4] is MCF7. Briefly: Antitumor activity against human MCF7 cells assessed as reduction in cell viability incubated for 48 hrs by MTT assay. In kind it is functional, cell-based. The conditions noted are these: MCF7, 48 h.
Test [5] deals with A549. Briefly: Antitumor activity against human A549 cells assessed as reduction in cell viability incubated for 48 hrs by MTT assay. In kind it is functional, cell-based. The conditions noted are these: A549, 48 h.
Test [6] can be described thus: Antitumor activity against mouse RIL-175 cells assessed as reduction in cell viability incubated for 48 hrs by MTT assay. The test is classed as functional, cell-based. Particulars: RIL-175, 48 h.
A further test relates to Huh-7. Briefly: Antitumor activity against human Huh-7 cells assessed as reduction in cell viability incubated for 48 hrs by MTT assay. In kind it is functional, cell-based. Particulars: Huh-7, 48 h.
The test system of a further test is HCT-116. Briefly: Antitumor activity against human HCT-116 cells assessed as reduction in cell viability incubated for 48 hrs by MTT assay. In kind it is functional, cell-based. Particulars: HCT-116, 48 h.
Test [7] is described as follows: Cytotoxicity against human ACC-MESO-1 cells assessed as reduction in cell viability incubated for 72 hrs by WST-8 assay. In kind it is functional, cell-based. The conditions noted are these: ACC-MESO-1, 72 h.
A further test deals with Jurkat. Description: Cytotoxicity against human Jurkat cells assessed as reduction in cell viability incubated for 72 hrs by WST-8 assay. The test is classed as functional, cell-based.
The next test concerns SK-OV-3. Briefly: Cytotoxicity against human SK-OV-3 cells assessed as reduction in cell viability incubated for 72 hrs by WST-8 assay. The test is classed as functional, cell-based. The conditions noted are these: SK-OV-3, 72 h.

This is an account of results in ChEMBL document CHEMBL5230122, “Natural products and other inhibitors of F1FO ATP synthase” (Eur J Med Chem, 2020).

The term IC50 denotes the concentration at which inhibition is half-maximal. For `CCC(C)[C@H](NC(=S)[C@@H](NC(=O)C(C)O)C(C)C)C(=O)NCC(=O)N[C@@H](Cc1ccccc1O)C(=S)N[C@@H](C)C(=S)N[C@H](C(=O)N[C@H]1C(=O)N[C@@H]([C@@H](C)CC)C(=O)N[C@@H](C)C(=O)N[C@@H](C(C)C)C(=O)N[C@@H](Cc2cn(C)c[n+]2C)C(=O)N/C=C\SC1C)C(C)C` (stereo not given in full), the IC50 with A549 [1] came out at 48 nM; in the test with PaTu 8988t, 65 nM; in the test with HeLa it was 50 nM; in the test on MDA-MB-231 it was 72 nM; in the test on MCF7 [2], 59 nM.
For the compound `COC[C@@H](C[C@H]1O[C@@](O)([C@H](O)[C@@H]2C[C@H](OC)[C@@H](O)CC/C=C(C)/C=C/[C@@H](O[C@@H]3O[C@@H](C)[C@H](OC)[C@@H](O)[C@@H]3O)[C@H](C)/C=C(C)/C=C(C)/C=C(\C)C(=O)O2)[C@H](C)[C@@H](O)[C@H]1C)O[C@H]1C[C@](C)(O)[C@@H](O[C@H]2C[C@@H](OC)[C@H](O)[C@@H](C)O2)[C@H](C)O1`, the results for the IC50 (with NCI-H292; in test [3]) were 32 nM and 700 nM, respectively.
Take `CSCC[C@H](NC(=S)[C@@H](NC(=O)C(C)=O)C(C)C)C(=S)N[C@@H](C)C(=O)N[C@@H](C)C(=S)N[C@@H](C)C(=S)N[C@@H](C)C(=O)N[C@H]1C(=O)N[C@@H](C(C)C)C(=O)N[C@@H](C)C(=O)N[C@@H](Cc2ccccc2)C(=O)N[C@@H](C(O)c2cn(C)c[n+]2C)C(=O)N/C=C\SC1C` (stereo not given in full): the 50% inhibitory concentration (IC50) in the test on MCF7 [4] stood at 480 nM; with A549 [5], 1160 nM; in [6], 157 nM; with Huh-7, 141 nM; with HCT-116, 176 nM.
Take `CC[C@H](C)[C@@H]1NC(=O)[C@H](NC(=O)[C@H](C)NC(=S)[C@H](C)NC(=S)[C@H](C)NC(=S)[C@H](C)NC(=S)[C@H](CCSC)NC(=S)[C@@H](NC(=O)C(C)O)C(C)C)CS/C=C\NC(=O)[C@H]([C@@H](O)c2cn(C)c[n+]2C)NC(=O)[C@H](CC(C)C)NC(=O)[C@H](C)NC1=O` (stereo not given in full): the IC50 in test [7] turned out to be 14300 nM; in the test on Jurkat, 5400 nM; in the test with SK-OV-3 it was 10800 nM.
